Measured values from US12601016B2, “Genetically encoded fluorescent indicators under optogenetic control and uses thereof” (LUMISTAR BIOTECHNOLOGY, INC., priority 2018, dated 2026).
Each block holds one molecule with its values, some of them ahead of it.

Experiments:
[1] = Ca^2+ titration of purified NIR-GECO variants (EGTA-buffered Ca^2+ solutions); format: binding; conditions: Ca^2+ titration of purified protein, 25° C.; read-out: apparent Kd
From the text: (§1) NIR-GECO1 is a near infrared indicator and is engineered from a naturally-monomeric infrared fluorescent proteins (mIFP). NIR-GECO1 has absorbance and emission peaks at 678 and 704 nm, respectively, and undergoes a 90% decrease in fluorescence intensity upon binding Ca^2+, serving as an inverse response indicator contrast to K-GECO1, as shown in FIG. 2B.
(§2) To purify NIR-GECO variants for in vitro characterization, the gene encoding variants of interest with a poly-histidine tag on the C terminus, was expressed from the pBAD vector. Bacteria were lysed with a cell disruptor (Constant Systems Ltd) and then centrifuged at 15,000 g for 30 min, and proteins were purified by Ni-NTA affinity chromatography (Agarose Bead Technologies). The buffer was typically exchanged to 10 mM MOPS, 100 mM KCl (pH 7.2) with centrifugal concentrators (GE Healthcare Life Sciences).
Ca^2+ titrations were carried out using EGTA-buffered Ca^2+ solutions (Calcium Calibration Buffer Kit no. 1, Life Technologies). We prepared buffers by mixing a CaEGTA buffer (30 mM MOPS, 100 mM KCl, 10 mM EGTA, 10 mM CaCl2) and an EGTA buffer (30 mM MOPS, 100 mM KCl, 10 mM EGTA) to give free Ca^2+ concentrations ranging from 0 to 39 μM at 25° C. Fluorescence intensities were plotted against Ca^2+ concentrations and fitted by a sigmoidal binding function to determine the Hill coefficient and Kd.

[2] = In vitro fluorescence characterization of purified NIR-GECO1; format: physicochemical; conditions: inverse response indicator
From the text: as §1
as §2, with “The buffer was typically exchanged to 10 mM MOPS, 100 mM KCl (pH 7.2) with centrifugal concentrators (GE Healthcare Life Sciences).” left out
The extinction coefficients were determined by comparing the absorbance value at 678 nm to the absorbance value at the 391 nm and assuming an extinction coefficient of 39,900 M^− cm^− at 391 nm. […] The concentration of NIR-GECO variants (Ca^2+-free), NIR-GECO variants (Ca^2+-saturated) and mIFP was adjusted to have absorbance of 0.2-0.6 at 650 nm. A series of dilutions, with absorbance ranging from 0.01 to 0.05, were prepared, and integrated emission intensity versus absorbance was plotted. Quantum yields were determined from the slopes (S) of each line using the equation Φprotein=Φstandard*(Sprotein/Sstandard).

[3] = system: iPSC-CMs; test: Blue-light photoactivation testing of GECIs expressed in iPSC-CMs; format: cell-based, human; conditions: 0.19 W/cm^2 of 470-nm LED light
From the text: (§3) (A) A representative time course of spontaneous Ca^2+ oscillations in iPSC-CMs as imaged using K-GECO1. (B) Photoactivation of R-GECO1 and (C) K-GECO1 in iPSC-CMs. Cells with and without spontaneous activities are shown in trace (i) and (ii), respectively. (D) Combined use of K-GECO1 and channelrhodopsin-2 (ChR2) in iPSC-CMs for all-optical control and observation of Ca^2+ transients. Illumination with 470-nm light at a pulse duration of 150 ms for optical control is indicated by arrowheads. (E) Small molecular inhibitors of the voltage-gated L-type calcium channels were applied to iPSC-CMs. iPSC-CMs were plated out at low density and exposed to clinically relevant doses of 100 nM and 1 μM for nifedipine and verapamil, respectively. Traces were obtained with optical stimulation by 470-nm light at a pulse duration of 40 ms at 0.3 Hz.
FIG. 7. Examination of photoactivation effects of NIR-GECO1 and NIR-GECO2 expressed in iPSC-CMs. […]
An inverted microscope (D1, Zeiss) equipped with a 63× objective lens (NA 1.4, Zeiss) and a multiwavelength LED light source (pE-4000, CoolLED) was used. […] The filter set (Q565lp dichroic mirror, and HQ620/60 emission filter) was used to stimulate ChR2 and to acquire fluorescence imaging of K-GECO1 or R-GECO1. […] Fluorescence signals were recorded using a CMOS camera (ORCA-Flash4.0LT, HAMAMATSU) controlled by a HC Image software. […]

[4] = system: voltage-gated L-type calcium channels; test: L-type calcium channel inhibitors applied to iPSC-CMs, optically paced Ca^2+ transients imaged using K-GECO1 with ChR2; format: cell-based, human; conditions: 1 μM; 470-nm pulses of 40 ms at 0.3 Hz
From the text: as §3, with “Hz. […]” for “Hz.”
An inverted microscope (D1, Zeiss) equipped with a 63× objective lens (NA 1.4, Zeiss) and a multiwavelength LED light source (pE-4000, CoolLED) was used. […] The filter set (Q565lp dichroic mirror, and HQ620/60 emission filter) was used to stimulate ChR2 and to acquire fluorescence imaging of K-GECO1 or R-GECO1. […] Fluorescence signals were recorded using a CMOS camera (ORCA-Flash4.0LT, HAMAMATSU) controlled by a HC Image software.

[5] = system: HL-1 cells; test: Pharmacological stimulation by caffeine in HL-1 cells imaged using NIR-GECO1; format: cell-based, mouse; conditions: 10 mM caffeine
Method: (§4) Representative time courses of Ca^2+ influx influenced by pharmacological stimulations of caffeine (10 mM). Spontaneous calcium oscillations were also able to be observed before applications of caffeine.
NIR-GECO1 and NIR-GECO2 were then tested for its performance in cardiovascular research. In one aspect of the present invention, a cell culture of stable immortalized cell lines, known as the HL-1 cell line, derived from mouse atrial cardiomyocytes is used as a model.
(§5) With reference to FIG. 8, NIR-GECO1 expressed in HL-1 (A) and iPSC-CMs (B), and NIR-GECO2 expressed in iPSC-CMs (C) were tested for pharmacological stimulation.
To culture the HL-1 cell line, flasks were pre-coated with gelatin/fibronectin at 37° C. overnight. […]
(§6) An inverted microscope (D1, Zeiss) equipped with a 63× objective lens (NA 1.4, Zeiss) and a multiwavelength LED light source (pE-4000, CoolLED) was used. […] The filter set (T685lpxr dichroic mirror, and ET720/60 emission filter) was used to stimulate ChR2 and to acquire fluorescence imaging of NIR-GECO1. […] Fluorescence signals were recorded by a CMOS camera (ORCA-Flash4.0LT, HAMAMATSU) and controlled by a HC Image software.

[6] = system: iPSC-CMs; test: Pharmacological stimulation by caffeine in iPSC-CMs imaged using NIR-GECO1 or NIR-GECO2; format: cell-based, human; conditions: 10 mM caffeine
Method: as §4, §5
Human iPSC-derived cardiomyocytes (Human iPSC Cardiomyocytes[…]|ax2505) were purchased from Axol Bioscience. The cells were plated in two wells of a 6-well plate and cultured for eight days in Axol's Cardiomyocyte Maintenance Medium to 80-90% confluency. Cells then were re-plated on Fibronectin/Gelatin (0.5%/0.1%) coated glass bottom dishes for final observation with Tyrode's buffer. […]
as §6

Kd [1]: 0.215 µM
decrease in fluorescence intensity upon binding Ca^2+ [2]: 90%
Molecule: NIR-GECO1: near infrared genetically encoded Ca^2+ indicator engineered from monomeric infrared fluorescent protein mIFP (SEQ ID NO. 6)
photoactivation: changes in fluorescence intensity under illumination ([3]; pulse duration 40 ms): no significant changes in fluorescence intensity

Kd [1]: 0.48 µM
Molecule: NIR-GECO2: near infrared Ca^2+ indicator sharing 99% sequence identity with NIR-GECO1 (SEQ ID NO. 7)
photoactivation: changes in fluorescence intensity under illumination ([3]; pulse duration 100 ms): no significant changes in fluorescence intensity

Molecule: COc1ccc(CCN(C)CCCC(C#N)(c2ccc(OC)c(OC)c2)C(C)C)cc1OC (centres unmarked) [verapamil]
effect on triggered intensity change as imaged using K-GECO1 [4]: suppress the triggered intensity change

Molecule: Cn1c(=O)c2c(ncn2C)n(C)c1=O [caffeine]
fluorescence intensity change (inverse indicator: increase in cytosolic Ca^2+ concentration) [5]: significant decreases in fluorescence intensities
fluorescence intensity change (inverse indicator: increase in cytosolic Ca^2+ concentration) [6]: significant decreases in fluorescence intensities
